Data reported in patent US8048880B2, “Treatment of cardiovascular disease and dyslipidemia using secretory phospholipase A2 (SPLA2) inhibitors and SPLA2 inhibitor combination therapies” (Anthera Pharmaceuticals, Inc., priority 2007, dated 2011).

Experiments:
[1] = Body weight of ApoE−/− mice on high fat diet during 16 weeks of A-002 (Example 1); type: in vivo; settings: oral gavage
Procedure: (§1) Male ApoE^−/− mice were fed a high fat diet (21% fat, 0.15% cholesterol, 19.5% casein) ad libitum for two weeks in order to acclimate to the diet. Plasma cholesterol levels and body weight were measured in order to obtain baseline levels, and mice were randomized into three groups of 20 mice based on these measurements. After the acclimation period, mice remained on the high fat diet and were administered A-002 (30 mg/kg or 90 mg/kg) or vehicle only (5% acacia) twice a day for 16 weeks by oral gavage.
(§2) Plasma cholesterol levels and body weight were measured at 4, 8, 12, and 16 weeks after the start of A-002 administration. Comparisons of measurements between test and control mice at each time period were performed using a two-way analysis of variance test (ANOVA) for repeated measures, followed by post-hoc Bonferroni test for significance.

IL-6 = experiment: Serum IL-6 concentration in humans with metabolic syndrome, A-002 twice a day (Example 4); type: in vivo, human; settings: metabolic syndrome subpopulation, week 8
Procedure: 204 human subjects from the United States with CVD, specifically stable coronary artery disease, were randomized to receive placebo or A-002 via oral administration twice a day over an eight week administration period at dosages of 50 mg, 100 mg, 250 mg, or 500 mg. Levels of various lipids and inflammatory markers were measured at the outset of the trial and at the end of weeks four and/or eight. For data sets with a normal distribution, mean levels of lipids or inflammatory markers were analyzed. For data sets with non-normal distribution, median levels were analyzed. […] In addition, administration of A-002 decreased median levels of CRP (Table 11).
Serum TG, CRP, and IL-6 levels were measured at eight weeks in 86 subjects from the ITT population diagnosed with metabolic syndrome.

ApoE−/− mice [2] = experiment: Plasma total cholesterol levels in ApoE−/− mice on high fat diet (Example 1); type: in vivo; settings: at 16 weeks
Procedure: as §1, §2

ApoE−/− mice [3] = experiment: En face lesion size in ApoE−/− mice on high fat diet, A-002 and/or statin (Example 3); type: in vivo; settings: alone or plus 0.02 g/kg pravastatin, 12 weeks
Procedure: Body weight, plasma total cholesterol, and plasma HDL levels were measured for six groups of twelve ApoE^−/− mice. The mice were then placed on a high fat diet for twelve weeks to allow for formation of significant fatty atherosclerotic plaques. The high fat diet was a modified version of the Western diet (TD.88137, Harlan Teklad, Madison, Wis.) consisting of casein (195 g/kg), DL-methionine (3 g/kg), sucrose (341.44 g/kg), corn starch (150 g/kg), anhydrous milkfat (210 g/kg), cholesterol (1.5 g/kg), cellulose (50 g/kg), mineral mix AlN-76 (Teklad; 35 g/kg), calcium carbonate (4 g/kg), vitamin mix (Teklad #40060; 10 g/kg), ethyoxyquin (antioxidant, 0.04 g/kg), and either 0.0156 g/kg (“low dose”) A-002 (Group A), 1.56 g/kg (“high dose”) A-002 (Group B), 0.02 g/kg pravastatin (Group C), low dose A-002 plus 0.02 g/kg pravastatin (Group D), high dose A-002 plus 0.02 g/kg pravastatin (Group E), or vehicle only (Group F). Mice were administered diets A-F in a blinded manner, and food was provided ad libitum. The diet was initially prepared based on the assumption that each mouse weighed 22.5 g and ate 4.5 g/day. Based on body weight and food consumption, the diet was modified over the 12 week course of treatment to adjust for a body weight of 26 g and a food intake of 2.5 g/day. The dosages of A-002 were selected to cover a range of 100-fold based on pharmacokinetics in ApoE^−/− mice as well as toxicology and previously observed efficacy in this model.
After twelve weeks, mice were sacrificed and plasma, heart tissue, and aortic tissue were collected. En face lesion size was determined via digital imaging analysis. Plaque content (as measured as en face lesion) was reduced in mice administered A-002 alone, statin alone, or A-002 in combination with statin. The reduction in plaque content in mice administered A-002 plus statin was substantially greater than the reduction in mice administered either compound alone (Table 2, compare Group D vs. Groups A and C; Group E vs. Groups B and C). Further, the reduction in plaque content in mice administered A-002 plus statin was substantially greater than the sum of the reduction in plaque content in mice administered A-002 alone and mice administered statin alone.

[4] = high dose A-002 (1.56 g/kg diet)
[5] = low dose A-002 (0.0156 g/kg diet)

CCc1c(C(=O)C(N)=O)c2c(OCC(=O)OC)cccc2n1Cc1ccccc1 [A-002, [[3-(2-Amino-1,2-dioxoethyl)-2-ethyl-1-(phenylmethyl)-1H-indol-4-yl]oxy]acetic acid methyl ester]
Body weight increase over the 16 week test period ([1]; 30 mg/kg A-002 twice a day): ~150%
Body weight increase over the 16 week test period ([1]; 90 mg/kg A-002 twice a day): ~141%
% change vs. baseline (mean [IL-6]) (IL-6): −4.29%
Change in mean [IL-6] vs. baseline (IL-6): -0.24 pg/mL
change from baseline in total cholesterol (ApoE−/− mice [2]; 30 mg/kg A-002 twice a day): −10%
change from baseline in total cholesterol (ApoE−/− mice [2]; 90 mg/kg A-002 twice a day): −12%
Change in mean % en face lesion vs. control (ApoE−/− mice [3]; [4]): −4.158%
Mean % en face lesion (ApoE−/− mice [3]; [4]): 1.469%
Change in mean % en face lesion vs. control (ApoE−/− mice [3]; [5]): −2.241%
Mean % en face lesion (ApoE−/− mice [3]; [5]): 3.386%
